Measurements taken from PubChem BioAssay AID520 (NMMLSC, 2006).
Activity calls are given as the source filed them. The rule behind the calls is not given here.

Biological target: N-formyl peptide receptor 2 (Homo sapiens) (UniProt P25090)
Assay: concentration-dependent FPRL1 ligand displacement – cell-based, FPR counter-screen, fluorescent ligand, dose response (AID 520)
Settings: FPRL1-expressing cells, fluorescent ligand binding inhibition; for Ki: measured here: FPRL1 binding Ki

N-formyl peptide receptor 2 (Homo sapiens), sequence (P25090 whole entry, looked up): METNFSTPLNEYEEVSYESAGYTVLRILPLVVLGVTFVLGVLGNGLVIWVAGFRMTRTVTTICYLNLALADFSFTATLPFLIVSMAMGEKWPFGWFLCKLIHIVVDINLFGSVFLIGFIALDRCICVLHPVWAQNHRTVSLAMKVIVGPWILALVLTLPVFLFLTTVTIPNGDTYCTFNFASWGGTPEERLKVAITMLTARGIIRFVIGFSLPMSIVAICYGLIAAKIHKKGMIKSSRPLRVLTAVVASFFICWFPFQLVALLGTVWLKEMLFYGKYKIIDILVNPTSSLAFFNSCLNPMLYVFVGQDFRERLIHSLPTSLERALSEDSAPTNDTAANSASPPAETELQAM

SMILES | Ki [µM] | IC50
COC(=O)[C@H](C(C)C)n1c(C)c(C(C)=O)c(C(C)=O)c1C | > 40.3 | –
CCCC(=O)Nc1c2c(nn1-c1ccc(OC)cc1)CS(=O)C2 (configuration not stated) | > 40.3 | –
COc1ccc(-n2c(Cc3cccn3C)nnc2SCC(=O)Nc2ccc(Cl)cc2)cc1 | > 40.3 | –
COc1cccc(-c2nc(CS(=O)(=O)CC(=O)NCCC(C)C)c(C)o2)c1 | > 40.3 | –
Cc1oc2cc(O)cc(O)c2c(=O)c1-c1ccc2c(c1)OCCCO2 | > 40.3 | –
CCC(=O)Nc1c(C#N)c2nc3ccccc3nc2n1-c1ccccc1C | > 40.3 | –
COc1ccc(OC)c(C2C(C(=O)c3cc4ccccc4o3)=C(O)C(=O)N2c2cc(C)on2)c1 (configuration not stated) | > 40.3 | > 66.7 µM (inactive)
COc1ccccc1C1/C(=C(/O)c2ccccc2)C(=O)C(=O)N1CC(C)C (configuration not stated) | > 40.3 | > 66.7 µM (inactive)
CSCCC1C(C#N)=C(N)Oc2n[nH]c(-c3cccs3)c21 (configuration not stated) | > 40.3 | > 66.7 µM (inactive)
Cc1cccc(Nc2ccccc2C(=O)NCc2ccco2)c1C | > 40.3 | –
O=C(Nc1nnc(-c2ccccc2Cl)o1)c1ccc(S(=O)(=O)N2CCCCCC2)cc1 | > 40.3 | –
CCCNC(=O)CS(=O)(=O)Cc1nc(-c2cccc(OC)c2)oc1C | > 40.3 | –
CCOc1cccc(/C(O)=C2/C(=O)C(=O)N(Cc3ccco3)C2c2ccncc2)c1 (configuration not stated) | > 40.3 | > 66.7 µM (inactive)
COc1ccccc1C1/C(=C(/O)c2ccccc2)C(=O)C(=O)N1CC(C)O (configuration not stated) | > 40.3 | > 66.7 µM (inactive)
COc1ccc(-c2cc(C(F)(F)F)nc(N3CCN(Cc4ccccc4)CC3)n2)cc1OC | 7.3 | –
CCSc1nnc(NC(=O)CSc2nnc(Cc3cccn3C)n2CCc2ccccc2)s1 | > 40.3 | –
CCN1C(=O)/C(=C2\SC(=S)N(CCCOC)C2=O)c2ccccc21 | > 40.3 | –
CC(C)(C)CC(=O)Nc1ccc(Nc2ccccc2)cc1 | > 40.3 | –
COc1cc(C2C(C(=O)c3ccc(C)o3)=C(O)C(=O)N2CCc2ccccc2)ccc1O (configuration not stated) | > 40.3 | > 66.7 µM (inactive)
Cc1ccc(C2/C(=C(/O)c3ccc(Br)cc3)C(=O)C(=O)N2Cc2ccco2)o1 (configuration not stated) | > 40.3 | > 66.7 µM (inactive)
COc1ccccc1C1/C(=C(/O)c2ccccc2)C(=O)C(=O)N1CCO (configuration not stated) | > 40.3 | > 66.7 µM (inactive)
Cc1ccc(C2/C(=C(/O)c3cnn(-c4ccccc4)c3C)C(=O)C(=O)N2CCN2CCOCC2)o1 (configuration not stated) | > 40.3 | > 66.7 µM (inactive)
O=C(Cn1cnc2c(cnn2-c2ccc(F)cc2)c1=O)OCc1ccccc1 | > 40.3 | –
COc1ccc(-c2c(C)oc3c(CN4CCN(CCO)CC4)c(O)ccc3c2=O)cc1OC | > 40.3 | –

SMILES | Ki [µM] | IC50
O=C(C1=C(O)C(=O)N(c2ncccn2)C1c1ccc(Cl)cc1)c1ccco1 (configuration not stated) | > 40.3 | > 66.7 µM (inactive)
CCOc1ccccc1NC(=O)CSc1nccn1-c1ccccc1 | > 40.3 | –
O=S(=O)(Nc1cccc2ncccc12)c1cccs1 | > 40.3 | –
CCCS(=O)(=O)N1CCCC(C(=O)N2CCC(Cc3ccccc3)CC2)C1 (configuration not stated) | > 40.3 | –
CC1=C(C(=O)OC(C)C)[C@]2(C(=O)N(CC(N)=O)c3ccccc32)C(C#N)=C(N)O1 | > 40.3 | > 66.7 µM (inactive)
COc1ccc(-c2cn3cccnc3n2)cc1NC(=O)C1CC1 | 4.6 | –
COc1ccc(/C(O)=C2\C(=O)C(=O)N(Cc3ccco3)C2c2ccc(OC)cc2OC)cc1 (configuration not stated) | > 40.3 | > 66.7 µM (inactive)
COCc1cc(C2C(C(=O)c3ccco3)=C(O)C(=O)N2CCOCCO)ccc1O (configuration not stated) | > 40.3 | > 66.7 µM (inactive)
C=CCOc1cccc(C2C(C(=O)c3ccco3)=C(O)C(=O)N2CCN2CCOCC2)c1 (configuration not stated) | > 40.3 | > 66.7 µM (inactive)
Cc1ccc(C2C(C(=O)c3sc(C)nc3C)=C(O)C(=O)N2CCN2CCOCC2)o1 (configuration not stated) | > 40.3 | > 66.7 µM (inactive)
CC1Oc2ccccc2N(Cc2ccccc2Cl)C1=O (configuration not stated) | > 40.3 | –
COc1ccc(/C(O)=C2/C(=O)C(=O)N(CCN3CCOCC3)C2c2ccc(C)cc2)cc1 (configuration not stated) | > 40.3 | > 66.7 µM (inactive)
CC1Cc2cc(/C(O)=C3\C(=O)C(=O)N(CCN4CCOCC4)C3c3ccccc3F)ccc2O1 (configuration not stated) | > 40.3 | > 66.7 µM (inactive)
COc1cccc2c1C(=O)c1c(O)c3c(c(O)c1C2=O)C[C@@](O)(C(C)=O)C[C@@H]3O[C@H]1C[C@H](N)[C@H](O)[C@H](C)O1 | 15.2 | –
Cc1nc2c(C#N)c(C)[nH]n2c(=O)c1Cc1ccccc1 | > 40.3 | –
COCCCN1C(=O)C(O)=C(C(=O)c2ccco2)C1c1ccccc1 (configuration not stated) | > 40.3 | > 66.7 µM (inactive)
COc1ccc(-c2cn3cccnc3n2)cc1NC(=O)C1CCCC1 | > 40.3 | –
CCOc1ccc(/C(O)=C2/C(=O)C(=O)N(c3nc(C)c(C)s3)C2c2ccco2)cc1 (configuration not stated) | > 40.3 | > 66.7 µM (inactive)
CCC(SC1=Nc2ccccc2C2=NC(CC(C)C)C(=O)N12)C(=O)Nc1ccc2c(c1)OCO2 (configuration not stated) | > 40.3 | –
CCCCn1c(NC(=O)CC)c(C#N)c2nc3ccccc3nc21 | > 40.3 | –
CCOC(=O)Nc1ccc(OC)cc1S(=O)(=O)N1CCCCC1 | > 40.3 | –
O=C1CCCC(O)=C1C(C#Cc1ccccc1)C1=C(O)CCCC1=O | > 40.3 | > 66.7 µM (inactive)
Cc1cccc(-n2nc3c(c2NC(=O)c2ccco2)CSC3)c1C | > 40.3 | –
C/C(=C1/SC(N2CCCC2)=NC1=O)c1ccc(Br)cc1 | > 40.3 | > 66.7 µM (inactive)

SMILES | Ki [µM] | IC50
O=C1N=c2ccccc2=C1c1sc(=S)n(CC2CCCO2)c1O (configuration not stated) | > 40.3 | > 66.7 µM (inactive)
Cc1c(C)c2cc(Cl)c(O)c(CN3CCCCC3)c2oc1=O | > 40.3 | –
CC(C)OC(=O)c1cc(NC(=O)C2C3CCC(O3)C2C(=O)O)cc(C(=O)OC(C)C)c1 (configuration not stated) | > 40.3 | –
CCN(C(=O)Cc1c(C(=O)O)[nH]c2ccccc12)c1cc(OC)ccc1OC | > 40.3 | –
COc1ccc(OC)c(C2C(C(=O)c3ccco3)=C(O)C(=O)N2CCCN2CCOCC2)c1 (configuration not stated) | > 40.3 | > 66.7 µM (inactive)
COc1ccc(-c2nc(-c3ccc(NC(=O)c4ccc(Br)o4)cc3)no2)cc1OC | > 40.3 | –
COC(=O)C1=[N+]([O-])OC(C(=O)OC)C1c1c[nH]c2ccccc12 (configuration not stated) | > 40.3 | –
COC(=O)Cc1[nH]nc2c1C(C1C=CCCC1)C(C#N)=C(N)O2 (configuration not stated) | > 40.3 | > 66.7 µM (inactive)
COc1ccc(CC(=O)Nc2ccc(-c3nnc(-c4ccc(C)cc4)o3)cc2)cc1 | > 40.3 | –
C=CCn1c(SCCCC)nc(O)cc1=O | > 40.3 | –
COc1cccc2cc(C(=O)C3=C(O)C(=O)N(Cc4ccco4)C3c3cccnc3)oc12 (configuration not stated) | > 40.3 | > 66.7 µM (inactive)
Cc1c(CNCc2cccs2)c(C(=O)O)c(C)n1Cc1ccccc1 | > 40.3 | –
Clc1ccc(Cc2nn3c(-c4ccncc4)nnc3s2)cc1 | > 40.3 | –
CCC(CC)C(=O)Nc1c2cnn(-c3ccccc3)c2nc(=O)n1-c1ccccc1 | > 40.3 | –
Cc1[nH]n2c(=O)c3c(nc2c1-c1cccc2ccccc12)CCC3 | > 40.3 | –
CC1(C)S[C@@H]2[C@H](NC(=O)Cc3ccccc3)C(=O)N2[C@H]1C(=O)O | > 40.3 | –
COc1ccc(-c2nc(-c3ccc(Br)o3)no2)cc1OC | > 40.3 | –
C[N+]1(C)[C@@H]2CC(OC(=O)[C@H](CO)c3ccccc3)C[C@H]1[C@@H]1O[C@@H]12 (some centres not stated) | > 40.3 | –
COC(=O)c1ccc(C2/C(=C(/O)c3ccc(OC)cc3)C(=O)C(=O)N2Cc2ccco2)cc1 (configuration not stated) | > 40.3 | > 66.7 µM (inactive)
CCN(CCCc1ccccc1)CCCc1ccccc1 | > 40.3 | –
CCCOc1ccc(C2C(C(=O)c3ccco3)=C(O)C(=O)N2CCCn2ccnc2)cc1 (configuration not stated) | > 40.3 | > 66.7 µM (inactive)
O=C(NCC1CCCO1)c1ccc(NC(=O)C2CCCCC2C(=O)O)cc1 (configuration not stated) | > 40.3 | –
COc1ccccc1Oc1c(C)oc2cc(OC(=O)c3ccco3)ccc2c1=O | > 40.3 | –
CCOC(=O)c1c(-c2ccc(-c3ccccc3)cc2)csc1NC(=O)C1C2CCC(O2)C1C(=O)O (configuration not stated) | > 40.3 | –

SMILES | Ki [µM] | IC50
Nc1ccc(Nc2ccccc2)cc1 | > 40.3 | –
COc1cc(C2C(C(=O)c3ccco3)=C(O)C(=O)N2CCc2ccccc2)ccc1O (configuration not stated) | > 40.3 | > 66.7 µM (inactive)
CCCCNC(=O)c1sc(=S)n2c1[nH]c(=O)c1ccccc12 | > 40.3 | –
O=C(c1ccc(Cl)cc1)N(Cc1cccs1)C1CCS(=O)(=O)C1 (configuration not stated) | > 40.3 | –
COCCN1C(=O)C(O)=C(C(=O)c2ccco2)C1c1cccc(Oc2ccccc2)c1 (configuration not stated) | > 40.3 | > 66.7 µM (inactive)
O=S(=O)(c1cnc[nH]1)N1CCc2ccccc21 | > 40.3 | –
N[C@@H](Cc1ccc(O)c(I)c1)C(=O)O | > 40.3 | –
Cc1[nH]n2c(=O)c3c(nc2c1-c1ccccc1)CCC3 | > 40.3 | –
COc1ccc(CCN2C(=O)C(O)=C(C(=O)c3ccco3)C2c2cccs2)cc1OC (configuration not stated) | > 40.3 | > 66.7 µM (inactive)
COC(=O)c1[nH]c(C)c(/C(O)=C2\C(=O)C(=O)N(CCCN3CCOCC3)C2c2ccccn2)c1C (configuration not stated) | > 40.3 | > 66.7 µM (inactive)
CCc1nnc(NC(=O)CSc2nnc(-c3cc4ccccc4cc3O)n2CC)s1 | > 40.3 | –
COc1cccc(/C(O)=C2/C(=O)C(=O)N(Cc3cccnc3)C2c2ccco2)c1 (configuration not stated) | > 40.3 | > 66.7 µM (inactive)
CCOc1cc(C(=O)NCc2nnc(SCC(=O)OC)n2C)cc(OCC)c1OCC | 11.2 | –
COc1cc2c3c(c1)/C(=C1/SC(NC(C)=O)=NC1=O)C(=O)N3C(C)(C)C=C2C | > 40.3 | –
COc1ccc2c(=O)c(-c3cnn(-c4ccccc4)c3)c(C)oc2c1 | > 40.3 | –
COc1ccc(C2C(C(=O)c3ccco3)=C(O)C(=O)N2Cc2cccnc2)cc1OC (configuration not stated) | > 40.3 | > 66.7 µM (inactive)
CCOC(=O)Cc1cc(=O)n2[nH]c(C)c(-c3ccccc3)c2n1 | > 40.3 | –
CCC(Sc1nc2c(c(=O)[nH]1)CCC2)C(=O)Nc1cccc(OC)c1 (configuration not stated) | > 40.3 | –
Cc1nc2c(-c3ccc(F)cc3)c(C)nn2c(C)c1CCC(=O)NC(C)CCc1ccco1 (configuration not stated) | > 40.3 | –
COc1ccc(CN(C(=O)c2ccccc2OC)C2CCS(=O)(=O)C2)cc1 (configuration not stated) | > 40.3 | –
COc1ccc(C2/C(=C(/O)c3ccccc3)C(=O)C(=O)N2CC(C)O)c(OC)c1 (configuration not stated) | > 40.3 | > 66.7 µM (inactive)
